Measured values taken from US20080200393A1, “Method and Composition For Treating Angiogenesis and For Preventing Cancer Progression and Metastasis Comprising a Prostate Secretory Protein (Psp94) Family Member” (Ambrillia Biopharma Inc., priority 2004, published 2008).
Where no end group is shown, it is not given here. The star is where a group is joined. Acm = CC(=O)NC*

Tests used:
ERK [1] = assay: Intrinsic effect on ERK phosphorylation (Western blot); format: cell-based
Procedure: The induction of the MAPK pathway by the PCK3145 derivative is further confirmed by the rapid and transient induction of ERK phosphorylation between 5-10 minutes (FIG. 8B) and is shown to be dose-dependent (FIG. 8C). Finally, the effects of the PCK3145 derivative were also compared to those of a scrambled peptide.

proMMP-2 = assay: Gelatin zymography of HUVEC conditioned media; format: cell-based, Human; settings: HUVEC, serum-free media
Procedure: Zymography. Zymography is a technique generally used to analyze the activity of matrix metalloproteinases (MMPs) in biological samples. It involves the electrophoretic separation of proteins under denaturing (Sodium Dodecyl Sulfate (SDS)) but non-reducing conditions through a polyacrylamide gel containing gelatin (for example, 10% gel containing 1 mg/ml gelatin for MMP-9 and MMP-2 assays). The resolved proteins are re-natured by exchanging SDS with a non-ionic detergent such as Triton X-100 and the gel is incubated in an incubation buffer for activation of MMP-2 and MMP-9 (for example at 37° C. for 18 hrs). The gel is stained with Coomassie blue and the MMP-2 and MMP-9 bands may be visualized as clear bands against a blue background (i.e., the MMPs degrade the gelatin and are visualized as clear bands; pro MMP-2 is 68 kDa and pro-MMP-9 is 92 kDa). These bands can be quantified using densitometry. For example, prior to stimulation, quiescent HUVEC were serum-starved for 16 h in the presence or absence of PCK3145 or PD98059 and then stimulated with VEGF. The conditioned media were collected 24 h after stimulation, and clarified by centrifugation. Identical volume of conditioned media were mixed with non reducing Laemmli sample buffer and subjected to 7.5% SDS-polyacrylamide gels containing 1 mg/ml gelatin (Sigma). The gels were then incubated for 30 min at room temperature twice in 2.5% (v/v) Triton X-100 and rinsed five times in doubly distilled water. The gels were incubated at 37° C. for a further 18 h in 200 mM NaCl/5 mM CaCl2/0.02% (v/v) Brij-35/50 mM Tris/HCl buffer (pH 7.6), then stained with 0.1% Coomassie Brilliant Blue R-250, followed by destaining in 10% (v/v) acetic acid/30% (v/v) methanol in water. Gelatinolytic activity was detected as unstained bands on a blue background.
The effect of the PCK3145 derivative (SEQ ID NO.:7) on MMP extracellular levels was thus assessed by gelatin-zymography in the conditioned media of serum-starved HUVEC. After 16 hours of starvation, HUVEC were stimulated with VEGF in the presence or not of the PCK3145 derivative. […]

HUVEC = HUVEC migration assay (modified Boyden chambers, gelatin-coated filters); format: cell-based, Human; settings: 300 μg/ml
Procedure: Migration Assays. Transwells filters (8-μm pore size; Costar, Cambridge, Mass.) were pre-coated with 0.5% gelatin/PBS for 24 h at 4° C. The transwells were then washed with PBS and assembled in 24-well plates. The upper chamber of each transwell was filled with 100 μl of HUVEC (1×10^6 cells/ml) and cells were allowed to adhere for 1 h. Cells were then treated for 2 h by adding 100 μl of 2-fold concentrated drug solution prepared in serum-free medium into the upper chamber and 600 μl of the drug solution into the lower chamber. Migration was initiated by adding VEGF (10 ng/ml), or S1P (1 μM) to the lower chamber. The plate was placed at 37° C. in 5% CO2/95% air for 4 h. Cells that had migrated to the lower surface of the filters were fixed with 10% formalin phosphate and stained with 0.1% Crystal Violet/20% (v/v) methanol. The migration was quantified using computer-assisted imaging and data are expressed as the average density of migrated cells per four fields (magnification×50).
Cells were plated onto gelatin-coated filters inserted in modified Boyden chemotactic chambers. The effect of PCK3145 on basal migration and on VEGF-induced migration was monitored by the number of cells that had migrated comparatively to untreated control cells. HUVEC were dislodged from the flasks by trypsinization, washed and resuspended in serum-free media. Cells were placed onto gelatin-coated filters inserted in chambers and incubated at 37° C., 5% CO2 for 30 min to allow adequate anchoring to the filters. The monolayers were then exposed to serum-free media containing PCK3145 (300 μg/ml) added within the upper and lower compartment of the chambers. After 2 h, VEGF (50 ng/ml) was added in the lower chamber as a chemoattractant. Cell migration was allowed to proceed for another 3 h. Filters were then fixed, stained, and the migrated cells quantified by microscopy as described in the Methods section. […] The effect of. PCK on S1P-induced HUVEC migration was also measured, but no inhibition was observed (not shown) in this particular assay.

ERK [2] = assay: Induced ERK phosphorylation in HUVEC (Western blot); format: cell-based, Human
Procedure: Cell culture. Human umbilical vein endothelial cells (HUVEC) and pulmonary aortic smooth muscle cells (PASMC) were obtained from Clonetics and maintained in endothelial cell basal medium-2 (EBM-2; Clonetics) and smooth muscle medium-2 (SmGM-2; Clonetics), respectively. Cells were cultured at 37° C. under a humidified atmosphere containing 5% CO2. For experimental purposes, cells were plated in 8 100-mm plastic dishes at 5,000 cells/cm^2 and were grown to confluence before overnight serum starvation. Cells were treated with vehicle or with a PCK3145 derivative diluted in 0.1 N NaOH, and stimulated with 50-100 ng/ml VEGF or PDGF, with 10 ng/ml of bFGF (basic fibroblast growth factor) or with 1 μM S1P (sphingosine-1-phosphate).
(§1) Immunoprecipitation and immunoblotting procedures. After treatment, cells were washed once with phosphate-buffered saline (PBS) containing 1 mM sodium orthovanadate and were incubated in the same medium for 1 h at 4° C. The cells were solubilized on ice in lysis buffer (150 mM NaCl, 10 mM Tris-HCl, pH 7.4, 1 mM EDTA, 1 mM EGTA, 0.5% Nonidet P-40, 1% Triton X-100) containing 1 mM sodium orthovanadate. The cells were then scraped from the culture dishes and the resulting lysates were clarified by centrifugation at 10,000 g for 10 min; Protein concentrations were determined using the micro bicinchoninic acid method (Pierce). For immunoprecipitation studies, lysates were clarified by a 1 h incubation at 4° C. with a mixture of Protein A/Protein G Sepharose beads. After removal of the Sepharose beads by low-speed centrifugation, identical amounts of protein (200 μg) from each sample were transferred to fresh tubes and incubated in lysis buffer overnight at 4° C. in the presence of 2 μg/ml of specific antibodies. Immunocomplexes were collected by incubating the mixture with 25 μl (50% suspension) of Protein A- (rabbit primary antibody) or Protein G- (mouse primary antibody) Sepharose beads, for 2 h. Nonspecifically-bound material was removed by washing the beads three times in 1 ml of lysis buffer containing 1 mM sodium orthovanadate, and bound material was solubilized in 25 μl of two-fold concentrated Laemmli sample buffer (125 mM Tris-HCl (pH 6.8), 20% glycerol, 4% SDS, 10% β-mercaptoethanol, and 0.00125% bromphenol blue), boiled 5 min, and resolved by SDS-PAGE. The proteins were transferred onto polyvinylidene difluoride (PVDF) membranes, blocked 1 h at room temperature with Tris-buffered saline/Tween 20 (147 mM NaCl, 20 mM Tris/HCl, pH 7.5, and 0.1% Tween 20) containing 2% bovine serum albumin and incubated overnight at 4° C. with primary antibody. […] The immunoreactive bands were quantified by scanning densitometry (Molecular Dynamics).
VEGF is a strong activator of ERKs (Extracellular-signal-Regulated protein Kinases) 1 and 2 via VEGF receptor 2. In order to test the ability of the PCK3145 derivative in potentially antagonizing VEGF-mediated ERK phosphorylation, serum-starved quiescent endothelial cells (HUVEC) were incubated with vehicle (phosphate-buffered saline (PBS) pH 7.4) or PCK3145 derivative (300 μg/ml) for 24 h and then stimulated with VEGF, bFGF (basic Fibroblast Growth Factor) or S1P (sphingosine-1-phosphate). Cells were washed with PBS containing NaF/Na3VO4 and incubated in the same medium buffer for 1 h at 4° C. The cells were scraped from the culture dishes and the resulting lysates clarified by centrifugation. Western blotting and immunodetection using anti-phosphoERK and anti-ERK antibodies was then performed.

VEGFR-2 = molecular target: T1, VEGFR-2 (Homo sapiens, UniProt P35968); assay: VEGF-induced VEGFR-2 phosphorylation in HUVEC (immunoprecipitation, Western blot); format: cell-based
T1 construct: host or cells: HUVEC
Procedure: as §1, with “SDS-PAGE.” for “SDS-PAGE. The proteins were transferred onto polyvinylidene difluoride (PVDF) membranes, blocked 1 h at room temperature with Tris-buffered saline/Tween 20 (147 mM NaCl, 20 mM Tris/HCl, pH 7.5, and 0.1% Tween 20) containing 2% bovine serum albumin and incubated overnight at 4° C. with primary antibody.”
The multifunctionality of VEGF at the cellular level results from its ability to initiate a diverse, complex and integrated network of signaling pathways via its major receptor, VEGFR-2. […] After each treatment, equal amounts of protein were immunoprecipitated with anti-VEGFR-2 polyclonal antibodies and analysed by Western blotting.

FSH receptor = molecular target: T2, FSH receptor (Homo sapiens, UniProt P23945); settings: testicular membrane preparations; Vijayalakshmi et al., 1981; cited from earlier work
T2 construct: host or cells: testicular membrane preparations
T2 sequence (P23945 18-695): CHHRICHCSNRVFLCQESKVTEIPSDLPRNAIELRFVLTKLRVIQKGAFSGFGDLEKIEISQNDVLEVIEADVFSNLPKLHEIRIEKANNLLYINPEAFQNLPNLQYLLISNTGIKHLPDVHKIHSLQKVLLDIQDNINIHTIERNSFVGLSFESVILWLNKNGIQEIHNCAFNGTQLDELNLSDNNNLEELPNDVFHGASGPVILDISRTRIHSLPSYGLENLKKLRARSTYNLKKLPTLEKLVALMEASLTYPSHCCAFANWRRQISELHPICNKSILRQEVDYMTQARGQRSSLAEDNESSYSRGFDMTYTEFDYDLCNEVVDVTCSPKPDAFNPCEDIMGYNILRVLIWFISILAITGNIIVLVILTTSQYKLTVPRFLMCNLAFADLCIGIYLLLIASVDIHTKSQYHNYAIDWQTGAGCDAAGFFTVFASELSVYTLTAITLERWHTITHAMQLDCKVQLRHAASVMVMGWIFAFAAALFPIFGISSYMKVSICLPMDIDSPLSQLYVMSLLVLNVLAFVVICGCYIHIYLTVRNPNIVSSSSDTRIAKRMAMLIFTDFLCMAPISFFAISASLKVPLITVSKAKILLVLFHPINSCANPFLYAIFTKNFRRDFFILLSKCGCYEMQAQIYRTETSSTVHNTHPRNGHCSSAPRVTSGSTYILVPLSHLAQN

tumor cells = settings: U.S. Pat. No. 5,428,011; cited from earlier work
FSH = settings: Thakur et al., 1981; cited from earlier work
skeletal metastasis = settings: WO03/039576; cited from earlier work

T1 sequence (P35968 20-1356): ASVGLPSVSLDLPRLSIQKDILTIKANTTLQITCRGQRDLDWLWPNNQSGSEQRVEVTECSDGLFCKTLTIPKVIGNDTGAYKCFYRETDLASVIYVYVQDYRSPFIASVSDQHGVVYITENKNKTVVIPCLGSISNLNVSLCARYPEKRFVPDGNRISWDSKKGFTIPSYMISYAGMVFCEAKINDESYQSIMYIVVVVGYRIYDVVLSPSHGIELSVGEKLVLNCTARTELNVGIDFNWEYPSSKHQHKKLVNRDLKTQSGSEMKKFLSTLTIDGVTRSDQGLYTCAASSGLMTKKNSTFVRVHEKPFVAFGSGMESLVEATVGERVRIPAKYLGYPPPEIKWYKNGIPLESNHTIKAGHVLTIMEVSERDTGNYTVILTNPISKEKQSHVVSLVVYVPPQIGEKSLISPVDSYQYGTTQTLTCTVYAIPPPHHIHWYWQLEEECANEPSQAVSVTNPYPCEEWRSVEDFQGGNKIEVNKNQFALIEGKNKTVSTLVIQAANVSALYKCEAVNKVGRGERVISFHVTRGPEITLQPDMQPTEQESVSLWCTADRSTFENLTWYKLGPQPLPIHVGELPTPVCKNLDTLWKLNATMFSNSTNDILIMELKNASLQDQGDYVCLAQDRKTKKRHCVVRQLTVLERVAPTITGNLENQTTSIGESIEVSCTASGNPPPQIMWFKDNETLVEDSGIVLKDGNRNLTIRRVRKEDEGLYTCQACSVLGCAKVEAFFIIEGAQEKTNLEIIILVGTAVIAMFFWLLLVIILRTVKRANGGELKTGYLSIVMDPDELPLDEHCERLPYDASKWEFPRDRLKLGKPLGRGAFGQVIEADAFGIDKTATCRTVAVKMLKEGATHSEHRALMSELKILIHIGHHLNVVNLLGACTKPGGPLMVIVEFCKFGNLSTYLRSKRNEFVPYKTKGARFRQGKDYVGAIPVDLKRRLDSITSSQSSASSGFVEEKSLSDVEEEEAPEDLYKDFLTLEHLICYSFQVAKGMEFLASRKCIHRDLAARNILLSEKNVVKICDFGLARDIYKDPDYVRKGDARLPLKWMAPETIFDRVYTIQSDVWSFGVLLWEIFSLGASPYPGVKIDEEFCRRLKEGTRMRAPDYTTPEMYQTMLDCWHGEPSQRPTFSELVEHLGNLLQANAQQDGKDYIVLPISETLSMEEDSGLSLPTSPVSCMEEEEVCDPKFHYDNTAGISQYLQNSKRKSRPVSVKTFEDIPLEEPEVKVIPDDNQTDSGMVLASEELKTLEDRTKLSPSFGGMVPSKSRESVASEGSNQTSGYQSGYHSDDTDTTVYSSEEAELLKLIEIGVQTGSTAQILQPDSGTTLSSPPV

COc1cccc(-c2cc(=O)c3ccccc3o2)c1N [PD98059, reference compound]
induction of ERK phosphorylation by the PCK3145 derivative (ERK [1]; MAPK inhibitor added): antagonized
VEGF-induced proMMP-2 extracellular levels (proMMP-2): significantly decreased

EWQTDNCETCTCYET (cysteine pairing not given here) [PCK3145, PSP94 fragment, 15 amino acids]
basal cell migration (HUVEC): no significant effect
VEGF-induced cell migration (HUVEC; VEGF 50 ng/ml): no significant effect

TC(Acm)ENC(Acm)TETQWC(Acm)ETDY [scrambled peptide, reference compound]
VEGF-induced ERK phosphorylation, negative control (ERK [2]): lack of effect
induction of ERK phosphorylation (ERK [1]; compared to the PCK3145 derivative): unable to induce
VEGF-induced VEGFR-2 phosphorylation, negative control (VEGFR-2): lack of effect

B1: PSP94: Prostate secretory protein of human seminal fluid, 10.7 kDa, 10 cysteine residues; wild type, 94 amino acids (protein, UniProt P08118 21-114, looked up)
Beta-microseminoprotein: SCYFIPNEGVPGDSTRKCMDLKGNKHPINSEWQTDNCETCTCYETEISCCTLVSTPVGYDKDNCQRIFKKEDCKYIVVEKKDPKKTCSVSEWII
binding of FSH to its receptor (FSH receptor): interfere
growth of tumor cells (tumor cells): inhibits
FSH levels (FSH): lower
development of skeletal metastasis (skeletal metastasis): reduces
